Legend:
Type in all cases: in vivo, BALB/c mice
[1] = system: CD8+ T-cells in peripheral blood; experiment: Percent of CD8+ lymphocytes in peripheral blood armed to produce IFNγ; details: CT26 immune mice; GMI compounds 40 mg/kg IP, G-CSF 0.125 mg/kg SC, every 12 hours for 3 days; 12 hours after final dose; FIG. 3
Protocol: (§1) Protocol for Detection and Mobilization of MILs in the CT-26 tumor model: GMI-1271 is a potent, small-molecule, glycomimetic antagonist of E-selectin. GMI-1359 is a potent, small-molecule glycomimetic dual antagonist, targeting E-selectin and CXCR4. The effects of inhibiting either E-selectin with GMI-1271 or E-selectin and CXCR4 with GMI-1359 on MIL mobilization was tested in BALB/c mice that had been induced to reject the syngeneic CT26 colon carcinoma via anti-CTLA-4 T cell checkpoint antibody.
(§2) Treatment for “Tumor Immune” groups 1-4 began on Day 25. The Vehicle was dosed intraperitoneally every 12 hours for 3 days (Days 25-27). GMI-1271 and GMI-1359 were dosed intraperitoneally at 40 mg/kg every 12 hours for 3 days (Days 25-27). G-CSF was dosed at 0.125 mg/kg subcutaneously every 12 hours for 3 days (Days 25-27).
(§3) At 12 hours after the final dose of test agents, all mice in groups 1-5 (treatment “Tumor Immune” groups 1-4 and control “Nonimmune” group 5) were euthanized for blood and bone marrow collection.
(§4) Flow cytometric analysis was used to determine CD62L and CD44 expression on CD8+ T cells in whole blood and bone marrow samples. Secondary analysis included AH-1 Dextramer analysis on the three tissue types and IFNγ production in pooled blood and bone marrow samples. Samples were acquired using a 4 laser, 14 color Attune NxT Flow Cytometer with autosampler. […]

CD8+ T cells = experiment: Flow cytometric CD62L/CD44 phenotype of CD8+ T cells in peripheral blood and bone marrow of CT26 immune mice (MIL mobilization); details: 12 hours after final dose
Protocol: as §1
Treatment with anti-CTLA-4 for all mice implanted with CT26.WT began on Day 3. All mice were dosed intraperitoneally on Days 3, 6, 10, 13, and 17. All mice were dosed according to individual body weight on the day of treatment (0.2 mg/20 g).
On Day 25, mice without tumors following CTLA-4 treatment were distributed into the four “Tumor Immune” treatment groups indicated in Table 1 such that the mean body weight within each group was within 10% of the overall mean.
as §2
A “Nonimmune” group 5 was populated with age-matched, naive non-tumor bearing mice.
as §3
Flow cytometric analysis was used to determine CD62L and CD44 expression on CD8+ T cells in whole blood and bone marrow samples. Secondary analysis included AH-1 Dextramer analysis on the three tissue types and IFNγ production in pooled blood and bone marrow samples. Samples were acquired using a 4 laser, 14 color Attune NxT Flow Cytometer with autosampler. CD62L and CD44 events were gated on CDS+ T cells.

CD8+ MILs = experiment: IFNγ production by bone marrow CD8+ MILs following in vitro stimulation with irradiated CT-26 tumor cells or AH1; details: tumor immunized mice, 40 mg/kg IP every 12 hours for 3 days, FIG. 2
Protocol: as §1, §2, §3, §4

## CC[C@H]1C[C@@H](C(=O)NCCNC(=O)CCOCCOCCOCCOCCOCCOCCOCCOCCOCCOCCOCCOC)C[C@@H](O[C@@H]2O[C@H](CO)[C@H](O)[C@H](O[C@@H](CC3CCCCC3)C(=O)[O-])[C@H]2NC(C)=O)[C@@H]1O[C@@H]1O[C@@H](C)[C@@H](O)[C@@H](O)[C@@H]1O.[Na+] [GMI-1271]
[1]
  percentage of CD8+ T-cells in peripheral blood primed to produce IFNγ: markedly increased
CD8+ T cells; 40 mg/kg IP every 12 hours for 3 days, FIG. 1C
  redistribution of effector memory (EM, CD62L-CD44+) CD8+ T cells: not effected
CD8+ T cells; GMI compounds 40 mg/kg IP, G-CSF 0.125 mg/kg SC, every 12 hours for 3 days, FIG. 1A
  mobilization of naïve (CD62L+CD44−) CD8+ T cells into the peripheral blood: mobilized
CD8+ T cells; GMI compounds 40 mg/kg IP, G-CSF 0.125 mg/kg SC, every 12 hours for 3 days, FIG. 1B
  mobilization of central memory (CM, CD62L+CD44+) CD8+ T cells into the peripheral blood: mobilized
CD8+ MILs
  functional activity of bone marrow CD8+ MILs (IFNγ production) after in vitro stimulation: primed to respond to both AH1 and whole tumor cells
